From US12723074B2, “Medicament for treatment and/or prevention of cancer” (TORAY INDUSTRIES, INC., priority 2020, dated 2026)
Blank lines part the entries; values can stand above or below the molecule they belong to.

Columns and labels:
[1] = system: Human breast cancer cells BT474; test: Antitumor effect in human breast cancer BT474-bearing NOG mice (combination with axitinib); type: in vivo; settings: day 63 after cancer bearing
Procedure: Likewise, in vivo antitumor effect in cancer-bearing mouse was evaluated by administering a combination of the anti-CAPRIN-1 antibody (anti-CAPRIN-1 humanized antibody #1) produced in Example 1, and an anti-vascular endothelial growth factor receptor (VEGFR) inhibitor.
Specifically, the antitumor effect of the combination of the anti-CAPRIN-1 antibody and axitinib according to the present invention was studied using NOG mice in which human-derived cancer cells expressing CAPRIN-1 protein were subcutaneously transplanted. Human breast cancer cells BT474 were subcutaneously transplanted at 2×10^7 cells per mouse as a mixture with Matrigel and allowed to grow until a tumor became approximately 100 mm^3 to prepare cancer-bearing mice. Each anti-CAPRIN-1 antibody produced in Example 1 was administered at 10 mg/kg once a week to the tail veins of five cancer-bearing mice described above. To these mice, administration of axitinib was started simultaneously with the initial administration of the anti-CAPRIN-1 antibody, and the administration was performed at 5 or 25 mg/kg twice a day for 9 days and then once a day for 15 days.
For a comparative control group, the same dose of the same anti-CAPRIN-1 antibody as above was administered once a week to cancer-bearing mice. For another comparative control group, axitinib was administered at the same administration intervals and dose as above to other individuals of cancer-bearing mice. Cancer-bearing mice in a non-treatment group were used as negative controls. After the start of administration, the sizes of cancers in the cancer-bearing mice were measured over time using calipers. Tumor volumes were calculated according to a standard method using a calculation expression: (Length of the major axis of the tumor)×(Length of the minor axis of the tumor)^2×0.5.

[2] = system: gastroesophageal junction cancer or gastric adenocarcinoma; settings: RAINBOW trial patients; cited from earlier work
[3] = system: Human breast cancer cells BT474; test: Antitumor effect in human breast cancer BT474-bearing NOD-SCID mice (combination with bevacizumab); type: in vivo; settings: day 41 after cancer bearing, antibody 10 mg/kg once a week, bevacizumab 1.25 mg/kg once a week
Procedure: Human breast cancer cells BT474 were subcutaneously transplanted at 2×10^7 cells per mouse as a mixture with Matrigel (Sigma) and allowed to grow until a tumor became approximately 100 mm^3 to prepare cancer-bearing mice.
For a comparative control group, the same dose of the same anti-CAPRIN-1 antibody as above was administered once a week to cancer-bearing mice. […] Cancer-bearing mice in a non-treatment group were used as negative controls. After the start of administration, the sizes of cancers in the cancer-bearing mice were measured over time using calipers. Tumor volumes were calculated according to a standard method using a calculation expression: (Length of the major axis of the tumor)×(Length of the minor axis of the tumor)^2×0.5.

[4] = biological target: T1, CAPRIN-1 on the cell membrane surface of human cancer cells (Homo sapiens, UniProt Q14444); test: Flow cytometry reactivity with cell membrane surface of human cancer cells expressing CAPRIN-1; type: binding; settings: human cancer cells BT-474, HT-29, QG56, H1650, NCI-N87, HEC-1-A, 22Rv1, Panc10.5, Hep3B, SKOV3, Caki-2, U-87MG, T24, OE33, OCI-AIM5, Ramos, TGBC14TKB, HT-1080, G-361
T1 construct: endogenous in cells; host or cells: BT-474, HT-29, QG56, H1650, NCI-N87, HEC-1-A, 22Rv1, Panc10.5, Hep3B, SKOV3, Caki-2, U-87MG, T24, OE33, OCI-AIM5, Ramos, TGBC14TKB, HT-1080, G-361
T1 sequence (Q14444 1-709): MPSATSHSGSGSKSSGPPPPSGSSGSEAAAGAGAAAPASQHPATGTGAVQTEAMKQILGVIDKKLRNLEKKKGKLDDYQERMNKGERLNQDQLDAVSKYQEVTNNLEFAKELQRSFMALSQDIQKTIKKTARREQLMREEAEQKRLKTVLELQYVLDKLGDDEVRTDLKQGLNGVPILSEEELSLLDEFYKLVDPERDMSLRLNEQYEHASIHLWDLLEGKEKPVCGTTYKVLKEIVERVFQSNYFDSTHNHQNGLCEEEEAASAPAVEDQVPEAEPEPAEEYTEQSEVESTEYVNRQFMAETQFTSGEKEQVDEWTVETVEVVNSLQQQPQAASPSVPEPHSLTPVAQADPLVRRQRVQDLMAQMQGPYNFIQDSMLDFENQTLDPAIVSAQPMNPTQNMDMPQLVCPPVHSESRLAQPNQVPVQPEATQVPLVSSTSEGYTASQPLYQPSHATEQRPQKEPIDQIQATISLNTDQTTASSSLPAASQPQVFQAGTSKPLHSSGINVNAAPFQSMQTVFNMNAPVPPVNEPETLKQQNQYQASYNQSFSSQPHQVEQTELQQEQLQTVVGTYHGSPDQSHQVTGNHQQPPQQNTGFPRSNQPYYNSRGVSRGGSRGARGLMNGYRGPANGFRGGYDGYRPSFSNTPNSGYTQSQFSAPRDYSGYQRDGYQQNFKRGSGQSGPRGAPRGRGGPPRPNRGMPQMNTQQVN
Text: Reactivity of each monoclonal antibody with human cancer cells confirmed to express CAPRIN-1 protein on the cell membrane surface was further confirmed by flow cytometry.
(§1) The reactivity of the anti-CAPRIN-1 antibody with cancer cells without permeation treatment of cell membrane was examined by flow cytometry to confirm that a portion of CAPRIN-1 was expressed on the cell membrane surface of cancer cells as shown in Examples given below.

[5] = biological target: T2, CAPRIN-1 on the cell membrane surface of mouse kidney cancer cells (Renca) and mouse breast cancer cells (4T1) (Mus musculus, UniProt Q60865); test: Flow cytometry reactivity with cell membrane surface of mouse cancer cells expressing CAPRIN-1; type: binding; settings: mouse cancer cells Renca and 4T1
T2 construct: endogenous in cells; host or cells: Renca, 4T1
T2 sequence (Q60865 1-707): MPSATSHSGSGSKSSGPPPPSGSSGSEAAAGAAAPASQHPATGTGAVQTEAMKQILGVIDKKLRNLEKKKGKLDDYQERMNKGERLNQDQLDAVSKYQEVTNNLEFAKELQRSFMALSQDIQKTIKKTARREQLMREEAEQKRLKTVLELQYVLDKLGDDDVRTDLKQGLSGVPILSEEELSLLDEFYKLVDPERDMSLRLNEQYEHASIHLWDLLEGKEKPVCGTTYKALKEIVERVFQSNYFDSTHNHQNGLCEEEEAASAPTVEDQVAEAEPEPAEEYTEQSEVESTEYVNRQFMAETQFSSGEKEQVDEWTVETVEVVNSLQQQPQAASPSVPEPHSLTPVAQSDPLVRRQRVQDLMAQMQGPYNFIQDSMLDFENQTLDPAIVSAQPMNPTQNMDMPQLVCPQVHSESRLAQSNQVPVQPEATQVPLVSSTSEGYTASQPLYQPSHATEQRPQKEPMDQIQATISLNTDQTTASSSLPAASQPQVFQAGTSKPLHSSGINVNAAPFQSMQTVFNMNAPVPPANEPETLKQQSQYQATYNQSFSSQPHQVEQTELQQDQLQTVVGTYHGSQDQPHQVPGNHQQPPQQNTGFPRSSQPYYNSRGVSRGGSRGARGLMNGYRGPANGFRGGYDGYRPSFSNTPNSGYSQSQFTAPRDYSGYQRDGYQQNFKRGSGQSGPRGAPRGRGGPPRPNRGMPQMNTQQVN
Text: as §1

Molecule: CNC(=O)c1ccccc1Sc1ccc2c(/C=C/c3ccccn3)n[nH]c2c1 [axitinib]
tumor volume when the tumor volume of the negative control was defined as 100% ([1]; axitinib 5 mg/kg (alone or with antibody 10 mg/kg once a week)): 39% | tumor volume when the tumor volume of the negative control was defined as 100% ([1]; axitinib 25 mg/kg (alone or with antibody 10 mg/kg once a week)): 27%

Molecule: CC(=O)O[C@H]1C(=O)[C@@]2(C)[C@H]([C@H](OC(=O)c3ccccc3)[C@]3(O)C[C@H](OC(=O)[C@H](O)[C@@H](NC(=O)c4ccccc4)c4ccccc4)C(C)=C1C3(C)C)[C@]1(OC(C)=O)CO[C@@H]1C[C@@H]2O [paclitaxel]
median overall survival [2]: 7.4 months | median progression-free survival [2]: 2.9 months

reactivity with the cell membrane surface of cancer cells (fluorescence intensity vs IgG control) [4]: reacted strongly | reactivity with the cell membrane surface of cancer cells (fluorescence intensity vs IgG control) [5]: reacted strongly
B1: anti-CAPRIN-1 humanized antibody #1: humanized IgG1 antibody with CDRs of the mouse anti-CAPRIN-1 monoclonal antibody (heavy chain SEQ ID NO: 114, light chain SEQ ID NO: 115) (antibody, listed as Mus musculus)
heavy: GPELVKPGASVKMSCKASGYTFTSYVMHWVKQKPGQGLEWIGYINPYNDGTKYNEKFKGKATLTSDKSSSTAYMELSSLTSEDSAVYYCARRYYYGSSGGYFDVWAQDHVRT
light: DVQITQSPSYLAASPGETITINCRASKSISKYLAWYQEKPGKTNKLLIYSGSTLQSGIPSRFSGSGSGTDFTLTISSLEPEDFAMYYCQQHNEYPYTFGGGTKLEIKR
tumor volume when the tumor volume of the negative control was defined as 100% [3]: 52% | tumor volume when the tumor volume of the negative control was defined as 100% ([1]; antibody alone 10 mg/kg once a week): 40%
